Assay results published in PubChem BioAssay (NCI).
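The compound was tested at five concentrations on cells cultured in 96-well plates, with a 48-hour exposure period. TGI marks complete inhibition of growth.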

What was measured:
Test in all cases: growth of human tumour cells (NCI), 48 h
786-0 renal = test system: 786-0 renal
A498 renal = test system: A498 renal
A549 NSCLC = test system: A549 NSCLC
ACHN renal = test system: ACHN renal
CAKI-1 renal = test system: CAKI-1 renal
CCRF-CEM leukemia = test system: CCRF-CEM leukemia
COLO 205 colon = test system: COLO 205 colon
DLD-1 colon = test system: DLD-1 colon
DMS 114 small cell lung = test system: DMS 114 small cell lung
DMS 273 small cell lung = test system: DMS 273 small cell lung
EKVX NSCLC = test system: EKVX NSCLC
HCC-2998 colon = test system: HCC-2998 colon
HCT-116 colon = test system: HCT-116 colon
HCT-15 colon = test system: HCT-15 colon
HL-60(TB) leukemia = test system: HL-60(TB) leukemia
HOP-18 NSCLC = test system: HOP-18 NSCLC
HOP-62 NSCLC = test system: HOP-62 NSCLC
HOP-92 NSCLC = test system: HOP-92 NSCLC
HT29 colon = test system: HT29 colon
IGROV1 ovarian = test system: IGROV1 ovarian
K-562 leukemia = test system: K-562 leukemia
KM12 colon = test system: KM12 colon
KM20L2 colon = test system: KM20L2 colon
LOX IMVI melanoma = test system: LOX IMVI melanoma
LXFL 529 NSCLC = test system: LXFL 529 NSCLC
M14 melanoma = test system: M14 melanoma
M19-MEL melanoma = test system: M19-MEL melanoma
MALME-3M melanoma = test system: MALME-3M melanoma
MOLT-4 leukemia = test system: MOLT-4 leukemia
NCI-H226 lung = test system: NCI-H226 lung
NCI-H23 lung = test system: NCI-H23 lung
NCI-H460 lung = test system: NCI-H460 lung
NCI-H522 lung = test system: NCI-H522 lung
OVCAR-3 ovarian = test system: OVCAR-3 ovarian
OVCAR-4 ovarian = test system: OVCAR-4 ovarian
OVCAR-5 ovarian = test system: OVCAR-5 ovarian
OVCAR-8 ovarian = test system: OVCAR-8 ovarian
RPMI-8226 leukemia = test system: RPMI-8226 leukemia
RXF-631 renal = test system: RXF-631 renal
SF-268 CNS = test system: SF-268 CNS
SF-295 CNS = test system: SF-295 CNS
SK-MEL-2 melanoma = test system: SK-MEL-2 melanoma
SK-MEL-28 melanoma = test system: SK-MEL-28 melanoma
SK-MEL-5 melanoma = test system: SK-MEL-5 melanoma
SK-OV-3 ovarian = test system: SK-OV-3 ovarian
SN12C renal = test system: SN12C renal
SNB-19 CNS = test system: SNB-19 CNS
SNB-75 CNS = test system: SNB-75 CNS
SNB-78 CNS = test system: SNB-78 CNS
SW-620 colon = test system: SW-620 colon
TK-10 renal = test system: TK-10 renal
U251 CNS = test system: U251 CNS
UACC-257 melanoma = test system: UACC-257 melanoma
UACC-62 melanoma = test system: UACC-62 melanoma
UO-31 renal = test system: UO-31 renal
XF 498 CNS = test system: XF 498 CNS

CCOC(=O)[C@@]1(C)C=C2O[C@@H]3OC4(CCCCC4)O[C@@H]3C2=C2C(O)=CC=C(O)[C@]21C(=O)OC
TGI (786-0 renal): > 68 µM
TGI (A498 renal): > 68 µM
TGI (A549 NSCLC): > 68 µM
TGI (ACHN renal): > 68 µM
TGI (CAKI-1 renal): > 68 µM
TGI (CCRF-CEM leukemia): > 68 µM
TGI (COLO 205 colon): > 68 µM
TGI (DLD-1 colon): > 68 µM
TGI (DMS 114 small cell lung): > 68 µM
TGI (DMS 273 small cell lung): > 68 µM
TGI (EKVX NSCLC): > 68 µM
TGI (HCC-2998 colon): > 68 µM
TGI (HCT-116 colon): > 68 µM
TGI (HCT-15 colon): > 68 µM
TGI (HL-60(TB) leukemia): > 68 µM
TGI (HOP-18 NSCLC): > 68 µM
TGI (HOP-62 NSCLC): > 68 µM
TGI (HOP-92 NSCLC): 33.8 µM
TGI (HT29 colon): > 68 µM
TGI (IGROV1 ovarian): > 68 µM
TGI (K-562 leukemia): > 68 µM
TGI (KM12 colon): > 68 µM
TGI (KM20L2 colon): > 68 µM
TGI (LOX IMVI melanoma): > 68 µM
TGI (LXFL 529 NSCLC): > 68 µM
TGI (M14 melanoma): > 68 µM
TGI (M19-MEL melanoma): > 68 µM
TGI (MALME-3M melanoma): > 68 µM
TGI (MOLT-4 leukemia): > 68 µM
TGI (NCI-H226 lung): > 68 µM
TGI (NCI-H23 lung): > 68 µM
TGI (NCI-H460 lung): > 68 µM
TGI (NCI-H522 lung): > 68 µM
TGI (OVCAR-3 ovarian): > 68 µM
TGI (OVCAR-4 ovarian): > 68 µM
TGI (OVCAR-5 ovarian): > 68 µM
TGI (OVCAR-8 ovarian): > 68 µM
TGI (RPMI-8226 leukemia): > 68 µM
TGI (RXF-631 renal): > 68 µM
TGI (SF-268 CNS): > 68 µM
TGI (SF-295 CNS): > 68 µM
TGI (SK-MEL-2 melanoma): > 68 µM
TGI (SK-MEL-28 melanoma): > 68 µM
TGI (SK-MEL-5 melanoma): > 68 µM
TGI (SK-OV-3 ovarian): > 68 µM
TGI (SN12C renal): > 68 µM
TGI (SNB-19 CNS): > 68 µM
TGI (SNB-75 CNS): > 68 µM
TGI (SNB-78 CNS): > 68 µM
TGI (SW-620 colon): > 68 µM
TGI (TK-10 renal): > 68 µM
TGI (U251 CNS): > 68 µM
TGI (UACC-257 melanoma): > 68 µM
TGI (UACC-62 melanoma): > 68 µM
TGI (UO-31 renal): > 68 µM
TGI (XF 498 CNS): > 68 µM
